Measurements: patent US9738655B2, “Tetrahydroisoquinolines containing substituted azoles as factor XIa inhibitors” (BRISTOL-MYERS SQUIBB COMPANY, priority 2013, dated 2017)
pKi: −log10 of the molar value. Counter-ions that a name gives are not always drawn.

Experiments:
[1] = target: purified human Factor XIa (Homo sapiens (Human), UniProt P03951); assay: Factor XIa enzyme inhibition assay (chromogenic substrate S-2366); conditions: read-out: Factor XIa Ki; measured at 25° C.
[2] = target: purified human plasma kallikrein (Homo sapiens (Human), UniProt P03952); assay: Plasma kallikrein enzyme inhibition assay (chromogenic substrate S-2302); assay type: biochemical; conditions: measured at 25° C. (no asterisk)
purified human plasma kallikrein, sequence (P03952 391-638): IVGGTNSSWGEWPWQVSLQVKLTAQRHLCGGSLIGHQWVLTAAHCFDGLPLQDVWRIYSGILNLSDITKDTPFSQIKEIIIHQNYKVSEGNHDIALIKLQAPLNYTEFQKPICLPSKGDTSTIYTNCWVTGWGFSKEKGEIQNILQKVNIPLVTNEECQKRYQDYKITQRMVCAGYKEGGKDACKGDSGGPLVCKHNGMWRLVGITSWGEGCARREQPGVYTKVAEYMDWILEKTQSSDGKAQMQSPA
purified human plasma kallikrein, sequence (P03952 20-390 partner): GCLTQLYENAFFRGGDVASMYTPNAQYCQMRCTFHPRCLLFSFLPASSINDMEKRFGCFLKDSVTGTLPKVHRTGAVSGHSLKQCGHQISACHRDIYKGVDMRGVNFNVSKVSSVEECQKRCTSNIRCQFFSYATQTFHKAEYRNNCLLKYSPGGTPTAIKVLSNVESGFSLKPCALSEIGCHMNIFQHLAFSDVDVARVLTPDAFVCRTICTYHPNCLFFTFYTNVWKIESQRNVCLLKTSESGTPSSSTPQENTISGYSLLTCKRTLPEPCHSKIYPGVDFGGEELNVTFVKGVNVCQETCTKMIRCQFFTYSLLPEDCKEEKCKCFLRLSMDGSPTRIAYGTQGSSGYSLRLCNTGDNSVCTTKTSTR

purified human Factor XIa, sequence (P03951 388-625): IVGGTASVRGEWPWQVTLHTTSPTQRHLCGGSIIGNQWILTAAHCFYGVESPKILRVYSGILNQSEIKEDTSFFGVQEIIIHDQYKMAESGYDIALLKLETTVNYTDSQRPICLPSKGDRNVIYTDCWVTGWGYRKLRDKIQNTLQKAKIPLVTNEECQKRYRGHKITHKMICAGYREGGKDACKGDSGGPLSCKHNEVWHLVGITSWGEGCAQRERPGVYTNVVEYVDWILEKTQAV
purified human Factor XIa, sequence (P03951 19-387 partner): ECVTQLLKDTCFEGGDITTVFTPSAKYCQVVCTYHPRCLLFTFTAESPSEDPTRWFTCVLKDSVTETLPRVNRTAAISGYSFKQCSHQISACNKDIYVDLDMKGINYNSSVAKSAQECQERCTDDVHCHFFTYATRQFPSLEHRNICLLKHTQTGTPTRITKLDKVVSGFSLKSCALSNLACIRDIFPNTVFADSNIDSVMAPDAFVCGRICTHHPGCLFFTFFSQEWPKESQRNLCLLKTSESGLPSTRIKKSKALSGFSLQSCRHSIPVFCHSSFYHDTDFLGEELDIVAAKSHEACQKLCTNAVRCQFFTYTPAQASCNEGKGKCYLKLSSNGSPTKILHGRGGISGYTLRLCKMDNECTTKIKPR

SMILES	pKi [1]	pKi [2]
CN(C)Cc1ccc(-c2cccc3c2CCN(C(=O)c2cn(-c4cccc(Cl)c4F)nn2)C3C(=O)Nc2ccc(C(=O)O)cc2)cc1 (stereo not drawn) [Example 154, 4-(2-(1-(3-chloro-2-fluorophenyl)-1H-1,2,3-triazole-4-carbonyl)-5-(4-((dimethylamino)methyl)phenyl)-1,2,3,4-tetrahydroisoquinoline-1-carboxamido)benzoic acid, TFA salt]	> 8.30	8.28
NS(=O)(=O)c1cccc(-c2cccc3c2CCN(C(=O)c2cn(-c4cccc(Cl)c4F)nn2)C3C(=O)Nc2ccc(C(=O)O)cc2)c1 (stereo not drawn) [Example 155, 4-(2-(1-(3-chloro-2-fluorophenyl)-1H-1,2,3-triazole-4-carbonyl)-5-(3-sulfamoylphenyl)-1,2,3,4-tetrahydroisoquinoline-1-carboxamido)benzoic acid]	> 8.30	7.62
Cn1ncc2cc(-c3cccc4c3CCN(C(=O)c3cn(-c5cccc(Cl)c5F)nn3)C4C(=O)Nc3ccc(C(=O)O)cc3)ccc21 (stereo not drawn) [Example 156, 4-(2-(1-(3-chloro-2-fluorophenyl)-1H-1,2,3-triazole-4-carbonyl)-5-(1-methyl-1H-indazol-5-yl)-1,2,3,4-tetrahydroisoquinoline-1-carboxamido)benzoic acid]	> 8.30	7.52
O=C(O)c1ccc(NC(=O)C2c3cccc(-c4ccc5c(c4)OCO5)c3CCN2C(=O)c2cn(-c3cccc(Cl)c3F)nn2)cc1 (stereo not drawn) [Example 157, 4-(5-(benzo[d][1,3]dioxol-5-yl)-2-(1-(3-chloro-2-fluorophenyl)-1H-1,2,3-triazole-4-carbonyl)-1,2,3,4-tetrahydroisoquinoline-1-carboxamido)benzoic acid]	> 8.30	7.53
O=C(O)c1ccc(NC(=O)C2c3cccc(-c4cnoc4)c3CCN2C(=O)c2cn(-c3cccc(Cl)c3F)nn2)cc1 (stereo not drawn) [Example 159, 4-(2-(1-(3-chloro-2-fluorophenyl)-1H-1,2,3-triazole-4-carbonyl)-5-(isoxazol-4-yl)-1,2,3,4-tetrahydroisoquinoline-1-carboxamido)benzoic acid]	7.88	7.66
O=C(O)c1ccc(NC(=O)C2c3cccc(-c4ccc5cn[nH]c5c4)c3CCN2C(=O)c2cn(-c3cccc(Cl)c3F)nn2)cc1 (stereo not drawn) [Example 161, 4-(2-(1-(3-chloro-2-fluorophenyl)-1H-1,2,3-triazole-4-carbonyl)-5-(1H-indazol-6-yl)-1,2,3,4-tetrahydroisoquinoline-1-carboxamido)benzoic acid]	> 8.30	8.61
Cn1cc2ccc(-c3cccc4c3CCN(C(=O)c3cn(-c5cccc(Cl)c5F)nn3)C4C(=O)Nc3ccc(C(=O)O)cc3)cc2n1 (stereo not drawn) [Example 162, 4-(2-(1-(3-chloro-2-fluorophenyl)-1H-1,2,3-triazole-4-carbonyl)-5-(2-methyl-2H-indazol-6-yl)-1,2,3,4-tetrahydroisoquinoline-1-carboxamido)benzoic acid]	> 8.30	7.30
COC1CCN(c2cccc3c2CCN(C(=O)c2cn(-c4cccc(Cl)c4F)nn2)C3C(=O)Nc2ccc3c(c2)CCC(=O)N3C)CC1 (stereo not drawn) [Example 189, 2-(1-(3-Chloro-2-fluorophenyl)-1H-1,2,3-triazole-4-carbonyl)-5-(4-methoxypiperidin-1-yl)-N-(1-methyl-2-oxo-1,2,3,4-tetrahydroquinolin-6-yl)-1,2,3,4-tetrahydroisoquinoline-1-carboxamide, TFA salt]	6.39	6.27
COC1CCN(c2cccc3c2CCN(C(=O)c2cn(-c4cccc(Cl)c4F)nn2)C3C(=O)Nc2ccc3c(c2)CC(=O)N3)CC1 (stereo not drawn) [Example 190, 2-(1-(3-Chloro-2-fluorophenyl)-1H-1,2,3-triazole-4-carbonyl)-5-(4-methoxypiperidin-1-yl)-N-(2-oxoindolin-5-yl)-1,2,3,4-tetrahydroisoquinoline-1-carboxamide, TFA salt]	7.01	6.79
